Laboratory results taken from US11046672B2, “Indolinones compounds and their use in the treatment of fibrotic diseases” (RESPIVERT LIMITED, priority 2015, dated 2021).
Like-named read-outs stand apart in the source and are kept apart here.

Columns and labels:
[1] = molecular target: T1, PDGFRβ (Homo sapiens (Human), UniProt P09619); experiment: PDGF-BB induced phosphorylation of PDGFRβ in fibroblasts (MRC5 cells, HTRF); type: cell-based
[2] = PAMPA permeability assay; type: in vitro ADME; conditions: PAMPA; for recovery at 5 hr, 10 μM: pH 7, PAMPA, donor and acceptor compartments; for Papp at 5 h, 10 μM: pH 7, pH 7, 10 μM
[3] = molecular target: T1, PDGFRβ; conditions: read-out: Ki PDGFRβ
[4] = tested on: MRC5 cells; experiment: Cell viability assay in MRC5 cells (MTT)
[5] = MRC5 cells, n = 1 unless otherwise indicated, read-out: PDGFBB-induced PDGFRβ phosphorylation in MRC5 cells (IC50)
[6] = mean, n = 2 unless otherwise indicated

T1 sequence (P09619 33-1106): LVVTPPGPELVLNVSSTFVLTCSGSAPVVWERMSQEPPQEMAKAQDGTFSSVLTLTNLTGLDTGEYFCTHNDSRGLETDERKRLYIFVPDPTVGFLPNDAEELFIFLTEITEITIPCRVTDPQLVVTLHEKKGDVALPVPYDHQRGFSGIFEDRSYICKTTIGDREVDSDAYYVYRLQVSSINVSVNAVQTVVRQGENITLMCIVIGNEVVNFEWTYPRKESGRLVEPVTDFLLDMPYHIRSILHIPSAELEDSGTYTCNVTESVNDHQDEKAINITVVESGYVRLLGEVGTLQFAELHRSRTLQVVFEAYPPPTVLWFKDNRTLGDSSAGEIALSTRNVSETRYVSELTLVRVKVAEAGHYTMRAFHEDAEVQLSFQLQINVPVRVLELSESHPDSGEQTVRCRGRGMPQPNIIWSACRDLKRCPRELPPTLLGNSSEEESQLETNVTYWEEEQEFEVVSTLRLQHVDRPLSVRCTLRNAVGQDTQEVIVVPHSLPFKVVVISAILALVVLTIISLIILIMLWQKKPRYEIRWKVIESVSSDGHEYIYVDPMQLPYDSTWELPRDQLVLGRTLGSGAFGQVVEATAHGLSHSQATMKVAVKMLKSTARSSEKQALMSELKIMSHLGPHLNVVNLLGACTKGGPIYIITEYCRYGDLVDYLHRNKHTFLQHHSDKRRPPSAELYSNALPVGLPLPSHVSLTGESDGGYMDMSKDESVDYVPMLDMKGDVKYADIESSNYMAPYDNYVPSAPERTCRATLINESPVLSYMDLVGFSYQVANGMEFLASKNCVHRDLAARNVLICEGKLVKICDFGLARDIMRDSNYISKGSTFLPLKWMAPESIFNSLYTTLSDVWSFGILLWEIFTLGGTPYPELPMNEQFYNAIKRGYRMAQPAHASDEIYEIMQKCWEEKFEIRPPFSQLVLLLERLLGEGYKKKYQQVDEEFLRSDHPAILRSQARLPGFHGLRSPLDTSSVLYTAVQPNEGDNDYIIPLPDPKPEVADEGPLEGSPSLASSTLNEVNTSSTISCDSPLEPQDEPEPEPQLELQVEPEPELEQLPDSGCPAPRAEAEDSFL

SMILES	IC50 [1, 5] [nM]	recovery at 5 hr, 10 μM [2] [%]	Papp at 5 h, 10 μM [2] [×10⁻⁶ cm/s]	Ki [3, 6] [nM]	Cell viability at 100 nM (%) [4] [%]	Cell viability at 300 nM (%) [4] [%]	Cell viability at 1000 nM (%) [4] [%]	IC50 [1] [nM]	Ki [3] [nM]
COC(=O)c1ccc2c(c1)NC(=O)/C2=C(\Nc1ccc(C(=O)NOCCN2CCS(=O)(=O)CC2)cc1)c1ccccc1 [Example 41]	37.4	59.6	0.00258	15	112.3	96.1	86.8	–	–
COC(=O)c1cc2c(cc1C)/C(=C(/Nc1ccc(C(=O)N(C)OCCN3CCN(CCO)CC3)cc1)c1ccccc1)C(=O)N2 [Example 58]	4.06	49.5	0.0296	8.87	110.2	116.9	55.6	–	–
COC(=O)c1cc2c(cc1C)/C(=C(/Nc1ccc(C(=O)N(C)OCCN(C)CCO)cc1)c1ccccc1)C(=O)N2 [Example 56]	3.95	69.7	0.719	7.19	132	121	70.5	–	–
COC(=O)c1cc2c(cc1C)/C(=C(/Nc1ccc(C(=O)NOCCN3CCCCC3)cc1)c1ccccc1)C(=O)N2 [Example 49]	40.2	75.2	0.0768	31.1	124.5	110.8	69.4	–	–
COC(=O)c1ccc2c(c1)NC(=O)/C2=C(\Nc1ccc(C(=O)NOCCCN(C)C)cc1)c1ccccc1 [Example 19]	5.95	54.6	0.00329	9.62	108.3	92.7	76.9	–	–
COC(=O)c1ccc2c(c1)NC(=O)/C2=C(\Nc1ccc(S(=O)(=O)N(C)OCCN2CCN(C)CC2)cc1)c1ccccc1 [Example 25]	19.4	41.5	30	19.8	108.5	104.8	79.3	–	–
COC(=O)c1cc2c(cc1C)/C(=C(/Nc1ccc(C(=O)NOCCN3CCC(C#N)CC3)cc1)c1ccccc1)C(=O)N2 [Example 63]	4.74	–	–	15.7	99	116.9	12.1	–	–
COC(=O)c1cc2c(cc1C)/C(=C(/Nc1ccc(S(=O)(=O)N(C)OCCN(C)CCO)cc1)c1ccccc1)C(=O)N2 [Example 10, (Z)-Methyl 3-(((4-(N-(2-((2-hydroxyethyl)(methyl)amino)ethoxy)-N-methylsulfamoyl)phenyl)amino)(phenyl)methylene)-5-methyl-2-oxoindoline-6-carboxylate]	–	92.6	24.8	–	105.9	100.9	42	13.6	17.4
COC(=O)c1ccc2c(c1)NC(=O)/C2=C(\Nc1ccc(C(=O)NOCCN2[C@H](C)CCC[C@@H]2C)cc1)c1ccccc1 [Example 44]	73.9	–	–	103	103	105.9	109.8	–	–
COC(=O)c1cc2c(cc1C)/C(=C(/Nc1ccc(C(=O)NOCCCN3CCCCC3)cc1)c1ccccc1)C(=O)N2 [Example 53]	43.8	–	–	20.3	124.2	96.8	97.8	–	–
COC(=O)c1cc2c(cc1C)/C(=C(/Nc1ccc(C(=O)N(OC)C3CCN(C)CC3)c(C)c1)c1ccccc1)C(=O)N2 [Example 34]	13.4	–	–	15.8	114.8	80	61.5	–	–
COC(=O)c1cc2c(cc1C)/C(=C(/Nc1ccc(C(=O)N(OC)C3CCN(C)CC3)cc1)c1ccccc1)C(=O)N2 [Example 35]	26.9	–	–	22.1	92.9	77.2	75.7	–	–
COC(=O)c1ccc2c(c1)NC(=O)/C2=C(\Nc1ccc(C(=O)NOCCN(C)CCO)cc1)c1ccccc1 [Example 45]	27.2	–	–	14.1	98.9	104.7	80.7	–	–
COC(=O)c1ccc2c(c1)NC(=O)/C2=C(\Nc1ccc(C(=O)N(C)OCCN(C)C)c(C)c1)c1ccccc1 [Example 22]	6.68	–	–	10	102	74.1	39.2	–	–
COC(=O)c1ccc2c(c1)NC(=O)/C2=C(\Nc1ccc(C(=O)N2CCO2)cc1)c1ccccc1 [Example 37]	24.1	–	–	244	95.2	98.9	106	–	–
COCCN1CCN(CCONC(=O)c2ccc(N/C(=C3\C(=O)Nc4cc(C(=O)OC)ccc43)c3ccccc3)cc2)CC1 [Example 46]	31.7	–	–	28.1	120.7	109.5	86.3	–	–
COC(=O)c1ccc2c(c1)NC(=O)/C2=C(\Nc1ccc(C(=O)NOCCN2CCC(N(C)C)CC2)cc1)c1ccccc1 [Example 47]	39	–	–	10.2	112	102.4	93	–	–
COC(=O)c1cc2c(cc1C)/C(=C(/Nc1ccc(C(=O)NOC3CCN(C)CC3)c(C)c1)c1ccccc1)C(=O)N2 [Example 31]	7.72	–	–	6.58	111.7	97.3	95.7	–	–
